Molecules are shown by their SMILES.

The text below walks through data of US20250017905A1, “COMPOSITION FOR INHIBITING HISTAMINE-N-METHYLTRANSFERASE” (SUNTORY HOLDINGS LIMITED, priority 2021, published 2025).

This assay deals with T1, recombinant human histamine-N-methyltransferase (HNMT) (Homo sapiens, UniProt P50135).
T1 construct: host or cells: Escherichia coli
Description: Evaluation of histamine-N-methyltransferase inhibitory activity (Eurofins Panlabs, [3H]N-methylhistamine formation). The assay is classed as biochemical. How it is done: The study was commissioned to Eurofins Panlabs. The study was performed using recombinant human histamine-N-methyltransferase (HNMT) expressed in Escherichia coli. First, HNMT (0.025 μg/mL) was incubated with L-ergothioneine (L-ergothioneine concentration: 10 μM, 30 μM, 100 μM, 300 μM, or 1000 μM) in a phosphate buffer (pH 7.8) at 37° C. for 15 minutes. Next, 20 μM histamine, 1.4 μM S-(5′-adenosyl)-L-methionine, and 0.014 μM S-adenosyl-L-[methyl-3H]methionine were added to initiate an enzymatic reaction. After incubating at 37° C. for 30 minutes, 2.5 M borate was added to terminate the reaction. Lastly, the enzyme inhibitory activity of L-ergothioneine was evaluated using the amount of [3H]N-methylhistamine formed in the reaction as an index.
The concentration (μM) on the horizontal axis is the L-ergothioneine concentration.

T1 sequence (P50135 whole entry): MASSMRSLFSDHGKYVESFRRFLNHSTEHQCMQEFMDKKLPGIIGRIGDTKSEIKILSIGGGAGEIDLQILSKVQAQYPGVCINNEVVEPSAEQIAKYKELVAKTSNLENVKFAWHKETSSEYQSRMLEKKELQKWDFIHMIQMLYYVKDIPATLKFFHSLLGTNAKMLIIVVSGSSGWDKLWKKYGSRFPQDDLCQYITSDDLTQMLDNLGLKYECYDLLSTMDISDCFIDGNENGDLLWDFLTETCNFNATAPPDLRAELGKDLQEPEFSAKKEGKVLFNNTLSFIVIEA

With `C[N+](C)(C)[C@@H](Cc1c[nH]c(=S)[nH]1)C(=O)[O-]` [L-ergothioneine], the “histamine-N-methyltransferase inhibition (FIG. 1), in words” value (10 μM, 30 μM, 100 μM, 300 μM, or 1000 μM) was “concentration-dependent manner”. Further, the IC50 (HNMT 0.025 μg/mL, phosphate buffer pH 7.8, 37° C., 20 μM histamine, 10-1000 μM tested, read-out: L-ergothioneine concentration (IC50) that inhibits 50% of substrate binding of histamine-N-methyltransferase) was 46.2 µM.
